Laboratory results as given in PubChem BioAssay AID1259407 (Chemical Carcinogenesis Research Information System (CCRIS), 2018).
Active and inactive are the calls of the source. How the calls were made is not given here.

Test system: CCRIS mutagenicity, Ames/micronucleus/aberration tests
Experiment: CCRIS mutagenicity studies
[1] = Test System: AMES SALMONELLA TYPHIMURIUM, Strain/Indicator: TA97A, Metabolic Activation: NONE, Method: STANDARD PLATE
[2] = Test System: AMES SALMONELLA TYPHIMURIUM, Strain/Indicator: TA100, Metabolic Activation: NONE, Method: STANDARD PLATE
[3] = Test System: AMES SALMONELLA TYPHIMURIUM, Strain/Indicator: TA100, Metabolic Activation: NONE, Method: PREINCUBATION
[4] = Test System: AMES SALMONELLA TYPHIMURIUM, Strain/Indicator: TA98, Metabolic Activation: NONE, Method: STANDARD PLATE
[5] = Test System: AMES SALMONELLA TYPHIMURIUM, Strain/Indicator: TA102, Metabolic Activation: NONE, Method: STANDARD PLATE
[6] = Test System: AMES SALMONELLA TYPHIMURIUM, Strain/Indicator: TA1537, Metabolic Activation: NONE, Method: STANDARD PLATE
[7] = Test System: AMES SALMONELLA TYPHIMURIUM, Strain/Indicator: TA98, Metabolic Activation: RAT, LIVER, S-9, AROCLOR 1254, Method: STANDARD PLATE
[8] = Test System: AMES SALMONELLA TYPHIMURIUM, Strain/Indicator: TA100, Metabolic Activation: RAT, LIVER, S-9, AROCLOR 1254, Method: STANDARD PLATE
[9] = Test System: AMES SALMONELLA TYPHIMURIUM, Strain/Indicator: TA1537, Metabolic Activation: RAT, LIVER, S-9, AROCLOR 1254, Method: STANDARD PLATE

For `N#C/C(=C/C=C/c1ccccc1)c1ccc(F)cc1`, the mutagenic call [1] was “active; positive” and the mutagenic call [2] was “inactive; negative”.
In the case of `Cc1cc(=O)oc2cc3c(cc12)C1(C)OOC1(C)O3` (stereo not given), the mutagenic call [3] is reported as “active; positive”.
`Cc1ccc(Nc2ccc([N+](=O)[O-])cc2)cc1` was tested, and the mutagenic call (Test System: AMES SALMONELLA TYPHIMURIUM, Strain/Indicator: TA98(NR), Metabolic Activation: NONE, Method: PREINCUBATION) was “inactive; negative”, the mutagenic call (Test System: AMES SALMONELLA TYPHIMURIUM, Strain/Indicator: TA98, Metabolic Activation: NONE, Method: PREINCUBATION) was “active; positive” and the mutagenic call (Test System: AMES SALMONELLA TYPHIMURIUM, Strain/Indicator: TA98, Metabolic Activation: RAT, LIVER, S-9, AROCLOR 1254, Method: PREINCUBATION) was “active; positive”.
For `CCCCCCCOP(=S)([S-])OCCCCCCC.CCCCCCCOP(=S)([S-])OCCCCCCC.[Zn+2]`, the mutagenic call [4] was “inactive; negative”, the mutagenic call (Test System: AMES SALMONELLA TYPHIMURIUM, Strain/Indicator: TA98, Metabolic Activation: RAT, LIVER, S-9, Method: STANDARD PLATE) was “inactive; negative” and the mutagenic call [2] was “inactive; negative”. The mutagenic call (Test System: AMES SALMONELLA TYPHIMURIUM, Strain/Indicator: TA100, Metabolic Activation: RAT, LIVER, S-9, Method: STANDARD PLATE) was “inactive; negative”, the mutagenic call [5] was “inactive; negative” and the mutagenic call (Test System: AMES SALMONELLA TYPHIMURIUM, Strain/Indicator: TA102, Metabolic Activation: RAT, LIVER, S-9, Method: STANDARD PLATE) was “inactive; negative”.
For `CCCC(=O)C1c2cccc(O)c2C(=O)c2c(O)cccc21`, the mutagenic call [6] was “active; positive”, the mutagenic call (Test System: AMES SALMONELLA TYPHIMURIUM, Strain/Indicator: TA1537, Metabolic Activation: RAT, LIVER, S-9, PHENOBARBITAL AND BETA-NAPHTHOFLAVONE, Method: STANDARD PLATE) was “active; positive” and the mutagenic call (Test System: E. COLI, Strain/Indicator: WP2, Metabolic Activation: NONE, Method: STANDARD PLATE) was “inactive; negative”. For the same compound, the mutagenic call (Test System: E. COLI, Strain/Indicator: WP2, Metabolic Activation: RAT, LIVER, S-9, AROCLOR 1254, Method: STANDARD PLATE) was “inactive; negative”, the mutagenic call (Test System: E. COLI, Strain/Indicator: WP2 UVRA, Metabolic Activation: NONE, Method: STANDARD PLATE) was “inactive; negative” and the mutagenic call (Test System: E. COLI, Strain/Indicator: WP2 UVRA, Metabolic Activation: RAT, LIVER, S-9, AROCLOR 1254, Method: STANDARD PLATE) was “inactive; negative”.
`CC(=O)Nc1ccc(Cc2ccc(N)c(Cl)c2)cc1Cl` was tested, and the mutagenic call [3] was “inactive; negative” and the mutagenic call (Test System: AMES SALMONELLA TYPHIMURIUM, Strain/Indicator: TA100, Metabolic Activation: RAT, LIVER, S-9, AROCLOR 1254 (50, 100 OR 200 µL), Method: PREINCUBATION) was “active; positive”.
`O=c1ccc2ccc3occc3c2o1` was tested, and the mutagenic call [4] was “inactive; negative” and the mutagenic call (Test System: AMES SALMONELLA TYPHIMURIUM, Strain/Indicator: TA98, Metabolic Activation: RAT, LIVER, S-9, PHENOBARBITAL, Method: STANDARD PLATE) was “inactive; negative”.
`C1CCC2OCCOCCOC3CCCCC3OCCOCCOC2C1` (stereo not given) was tested, and the mutagenic call [4] was “inactive; negative”, the mutagenic call [7] was “inactive; negative” and the mutagenic call [2] was “inactive; negative”. The mutagenic call [8] was “inactive; negative”, the mutagenic call (Test System: AMES SALMONELLA TYPHIMURIUM, Strain/Indicator: TA1530, Metabolic Activation: NONE, Method: STANDARD PLATE) was “inactive; negative” and the mutagenic call (Test System: AMES SALMONELLA TYPHIMURIUM, Strain/Indicator: TA1530, Metabolic Activation: RAT, LIVER, S-9, AROCLOR 1254, Method: STANDARD PLATE) was “inactive; negative”. For the same compound, the mutagenic call [6] was “inactive; negative” and the mutagenic call [9] was “inactive; negative”.
`Nc1ncnc2c1ncn2Cc1ccccc1` was tested, and the mutagenic call (Test System: AMES SALMONELLA TYPHIMURIUM, Strain/Indicator: TA97, Metabolic Activation: NONE, Method: STANDARD PLATE) was “inactive; negative”, the mutagenic call (Test System: AMES SALMONELLA TYPHIMURIUM, Strain/Indicator: TA97, Metabolic Activation: RAT, LIVER, S-9, AROCLOR 1254, Method: STANDARD PLATE) was “inactive; negative” and the mutagenic call [4] was “inactive; negative”. For the same compound, the mutagenic call [7] was “active; positive”, the mutagenic call [2] was “inactive; negative” and the mutagenic call [8] was “inactive; negative”.
With `O=C1OCC(C(Br)Br)=C1Cl` the mutagenic call [2] was “active; positive”.
`O=c1c(O)c(-c2ccc(O)cc2)oc2cc(O)cc(O)c12` was tested, and the mutagenic call [1] was “inactive; negative”, the mutagenic call (Test System: AMES SALMONELLA TYPHIMURIUM, Strain/Indicator: TA97A, Metabolic Activation: RAT, LIVER, S-9, AROCLOR 1254, Method: STANDARD PLATE) was “active; positive” and the mutagenic call (Test System: AMES SALMONELLA TYPHIMURIUM, Strain/Indicator: TA98, Metabolic Activation: HAMSTER, LIVER, S-9, AROCLOR 1254, Method: STANDARD PLATE) was “active; positive”. The mutagenic call [4] was “inactive; negative”, the mutagenic call (Test System: AMES SALMONELLA TYPHIMURIUM, Strain/Indicator: TA98, Metabolic Activation: RAT, LIVER, S-9, 5,6-BENZOFLAVONE AND/OR SODIUM PHENOBARBITAL, Method: PREINCUBATION) was “active; positive” and the mutagenic call [7] was “active; positive”. For the same compound, the mutagenic call (Test System: AMES SALMONELLA TYPHIMURIUM, Strain/Indicator: TA98, Metabolic Activation: RAT, LIVER, S-105, 5,6-BENZOFLAVONE AND/OR SODIUM PHENOBARBITAL, Method: PREINCUBATION) was “inactive; negative”, the mutagenic call [2] was “inactive; negative” and the mutagenic call [5] was “inactive; negative”. For the same compound, the mutagenic call (Test System: AMES SALMONELLA TYPHIMURIUM, Strain/Indicator: TA102, Metabolic Activation: RAT, LIVER, S-9, AROCLOR 1254, Method: STANDARD PLATE) was “active; positive”, the mutagenic call (Test System: AMES SALMONELLA TYPHIMURIUM, Strain/Indicator: TA1535, Metabolic Activation: HAMSTER, LIVER, S-9, AROCLOR 1254, Method: STANDARD PLATE) was “inactive; negative” and the mutagenic call (Test System: AMES SALMONELLA TYPHIMURIUM, Strain/Indicator: TA1535, Metabolic Activation: NONE, Method: STANDARD PLATE) was “inactive; negative”. For the same compound, the mutagenic call (Test System: AMES SALMONELLA TYPHIMURIUM, Strain/Indicator: TA1535, Metabolic Activation: RAT, LIVER, S-9, AROCLOR 1254, Method: STANDARD PLATE) was “inactive; negative”, the mutagenic call (Test System: AMES SALMONELLA TYPHIMURIUM, Strain/Indicator: TA1537, Metabolic Activation: HAMSTER, LIVER, S-9, AROCLOR 1254, Method: STANDARD PLATE) was “active; positive” and the mutagenic call [6] was “inactive; negative”. The mutagenic call [9] was “active; positive”, the mutagenic call (Test System: MOUSE LYMPHOMA, Strain/Indicator: L5178Y (TK+/TK-), Metabolic Activation: NONE, Method: SUSPENSION/PLATE) was “active; positive. reevaluation of results: positive” and the mutagenic call (Test System: MOUSE LYMPHOMA, Strain/Indicator: L5178Y (TK+/TK-), Metabolic Activation: RAT, LIVER, S-9, AROCLOR 1254, Method: SUSPENSION/PLATE) was “active; positive. reevaluation of results: equivocal”.
